From patent US10329302B2, “Bicyclic-fused heteroaryl or aryl compounds” (Pfizer Inc., priority 2014, dated 2019)
Like-named read-outs stand apart in the source and are kept apart here.

Assays:
[1] = target: human IRAK4 kinase domain (aa 154-460) (Homo sapiens (Human), UniProt Q9NWZ3); experiment: IRAK4 Enzymatic DELFIA Assay, Protocol B; format: biochemical
Source text: IRAK4 Enzymatic DELFIA Assay, Protocol B.

[2] = target: human IRAK4 FL (Full Length) (Homo sapiens (Human), UniProt Q9NWZ3); experiment: IRAK4 Enzymatic DELFIA Assay, Protocol A; format: biochemical; settings: human IRAK4 FL, 0.6 mM ATP (KM); read-out: IRAK4 DELFIA Protocol A IC50
[3] = tested on: R848-induced TNFα production by human peripheral blood mononuclear cells (PBMCs); experiment: R848 Induced TNFα in Human PBMC Assay; format: cell-based; settings: Homo sapiens, PBMC, 3 h, read-out: R848-induced TNFa PBMC IC50 (nM)
[4] = human IRAK4 kinase domain (aa 154-460), 0.6 mM ATP (KM), read-out: IRAK4 DELFIA Protocol B IC50

human IRAK4 FL (Full Length), sequence (Q9NWZ3 whole entry): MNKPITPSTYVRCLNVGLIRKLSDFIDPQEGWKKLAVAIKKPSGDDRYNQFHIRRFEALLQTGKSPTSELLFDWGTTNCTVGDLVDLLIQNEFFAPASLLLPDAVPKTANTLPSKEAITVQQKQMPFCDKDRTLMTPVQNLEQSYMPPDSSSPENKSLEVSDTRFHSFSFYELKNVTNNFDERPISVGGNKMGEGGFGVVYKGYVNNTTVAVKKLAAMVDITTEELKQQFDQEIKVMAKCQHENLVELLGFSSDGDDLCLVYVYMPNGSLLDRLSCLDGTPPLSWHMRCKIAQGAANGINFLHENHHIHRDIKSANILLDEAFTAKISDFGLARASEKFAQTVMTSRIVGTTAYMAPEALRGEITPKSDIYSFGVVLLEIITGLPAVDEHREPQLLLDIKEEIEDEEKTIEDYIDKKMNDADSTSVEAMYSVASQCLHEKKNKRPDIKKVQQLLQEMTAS
human IRAK4 kinase domain (aa 154-460), sequence (Q9NWZ3 154-460): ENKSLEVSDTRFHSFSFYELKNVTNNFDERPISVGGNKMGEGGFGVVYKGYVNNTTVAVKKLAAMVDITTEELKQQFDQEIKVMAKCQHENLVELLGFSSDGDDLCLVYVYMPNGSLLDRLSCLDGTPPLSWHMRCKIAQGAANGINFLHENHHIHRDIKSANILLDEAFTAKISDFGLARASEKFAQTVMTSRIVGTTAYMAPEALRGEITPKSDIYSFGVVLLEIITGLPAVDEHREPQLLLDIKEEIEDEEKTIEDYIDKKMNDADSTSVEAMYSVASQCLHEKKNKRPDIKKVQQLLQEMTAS

| SMILES | IC50 [1, 4] [nM] | IC50 [1] [nM] | IC50 [2] [nM] | IC50 [3] [nM] |
| --- | --- | --- | --- | --- |
| CC(C)Oc1cc2c(OC(C)C3CCC3)ccnc2cc1C(N)=O (stereo not drawn) [Example 8, 4-(1-cyclobutylethoxy)-6-(propan-2-yloxy)quinoline-7-carboxamide] | 834 | – | – | – |
| CC(C)Oc1cc2c(OC[C@@H]3CCCN3C(=O)CC#N)nccc2cc1C(N)=O [Example 63, 1-{[(2S)-1-(cyanoacetyl)pyrrolidin-2-yl]methoxy}-7-(propan-2-yloxy)isoquinoline-6-carboxamide] | 252 | – | – | – |
| CC(C)Oc1cc2c(OC[C@@]34C[C@@H]3CN(C(=O)CC#N)C4)ccnc2cc1C(N)=O [Example 90, 4-{[(1S,5S)-3-(cyanoacetyl)-3-azabicyclo[3.1.0]hex-1-yl]methoxy}-6-(propan-2-yloxy)quinoline-7-carboxamide] | 438 | – | – | – |
| CC(C)Oc1cc2c(OC[C@H]3CCCNC3)nccc2cc1C(N)=O [Example 28, 1-[(3S)-piperidin-3-ylmethoxy]-7-(propan-2-yloxy)isoquinoline-6-carboxamide] | 1320 | – | – | – |
| CC(C)Oc1cc2c(OC[C@]34CNC[C@H]3C4)nccc2cc1C(N)=O [Example 139, 1-[(1S,5S)-3-azabicyclo[3.1.0]hex-1-ylmethoxy]-7-(propan-2-yloxy)isoquinoline-6-carboxamide] | 256 | – | – | – |
| CC(C)Oc1cc2c(OC[C@@]34CNCC[C@@H]3C4)nccc2cc1C(N)=O [Example 161, 1-[(1R,6S)-3-azabicyclo[4.1.0]hept-1-ylmethoxy]-7-(propan-2-yloxy)isoquinoline-6-carboxamide] | 88 | – | – | – |
| CC(C)Oc1cc2c(OC3CC4CCC3C4)ccnc2cc1C(N)=O (stereo not drawn) [Example 16, 4-(bicyclo[2.2.1]hept-2-yloxy)-6-(propan-2-yloxy)quinoline-7-carboxamide] | – | 386 | – | – |
| CC(C)Oc1cc2c(OC3CCC34CCNCC4)ccnc2cc1C(N)=O (stereo not drawn) [Example 52, 4-(7-azaspiro[3.5]non-1-yloxy)-6-(propan-2-yloxy)quinoline-7-carboxamide] | 4240 | – | – | – |
| CC(C)Oc1cc2c(O[C@H]3C[C@@H]4CN[C@H]3C4)nccc2cc1C(N)=O [Example 109, 1-[(1S,4R,6S)-2-azabicyclo[2.2.1]hept-6-yloxy]-7-(propan-2-yloxy)isoquinoline-6-carboxamide] | 1910 | – | – | – |
| CC(C)Oc1cc2c(OC[C@H]3CCCN(C(=O)CC#N)C3)ccnc2cc1C(N)=O [Example 93, 4-{[(3S)-1-(cyanoacetyl)piperidin-3-yl]methoxy}-6-(propan-2-yloxy)quinoline-7-carboxamide] | 1520 | – | – | – |
| CC(C)Oc1cc2c(OC[C@@H]3C[C@](O)(CC(F)(F)F)C(=O)N3)nccc2cc1C(N)=O [Example 184, 1-{[(2S,4S)-4-hydroxy-5-oxo-4-(2,2,2-trifluoroethyl)pyrrolidin-2-yl]methoxy}-7-(propan-2-yloxy)isoquinoline-6-carboxamide] | 60 | – | – | – |
| CC(C)Oc1cc2c(OC[C@@]3(C)CNC[C@@H]3C)ccnc2cc1C(N)=O [Example 55, 4-{[(3R,4R)-3,4-dimethylpyrrolidin-3-yl]methoxy}-6-(propan-2-yloxy)quinoline-7-carboxamide] | 264 | – | – | – |
| CC(C)Oc1cc2c(OCC3CCNC(=O)C3)nccc2cc1C(N)=O (stereo not drawn) [Example 138, 1-[(2-oxopiperidin-4-yl)methoxy]-7-(propan-2-yloxy)isoquinoline-6-carboxamide] | 1040 | – | – | – |
| C#CCOc1cc2c(OC[C@@H]3CCC(=O)N3)nccc2cc1C(N)=O [Example 318, 1-{[(2S)-5-oxopyrrolidin-2-yl]methoxy}-7-(prop-2-yn-1-yloxy)isoquinoline-6-carboxamide] | – | – | 1940 | 17200 |
| COc1cc2c(OC[C@@H]3C[C@@H](CC#N)C(=O)N3)nccc2cc1C(N)=O [Example 225, 1-{[(2S,4S)-4-(cyanomethyl)-5-oxopyrrolidin-2-yl]methoxy}-7-methoxyisoquinoline-6-carboxamide] | – | – | 3.4 | 155 |
| COCC1C[C@@H](COc2nccc3cc(C(N)=O)c(OC(C)C)cc23)NC1=O (stereo partly drawn) [Example 127, 1-{[(2S)-4-(methoxymethyl)-5-oxopyrrolidin-2-yl]methoxy}-7-(propan-2-yloxy)isoquinoline-6-carboxamide] | – | – | 65 | 682 |
| CC(C)Oc1cc2c(OC[C@@H]3CCC(=O)N3)ncc(F)c2cc1C(N)=O [Example 168, 4-fluoro-1-{[(2S)-5-oxopyrrolidin-2-yl]methoxy}-7-(propan-2-yloxy)isoquinoline-6-carboxamide] | – | – | 6.6 | 1460 |
| COc1cc2c(OC[C@@H]3C[C@@](F)(CCF)C(=O)N3)nccc2cc1C(N)=O [Example 276, 1-{[(2S,4R)-4-fluoro-4-(2-fluoroethyl)-5-oxopyrrolidin-2-yl]methoxy}-7-methoxyisoquinoline-6-carboxamide] | – | – | 4.1 | 107 |

| SMILES | IC50 [1, 4] [nM] | IC50 [1] [nM] | IC50 [2] [nM] | IC50 [3] [nM] |
| --- | --- | --- | --- | --- |
| CC(C)Oc1cc2c(OC[C@@H]3C[C@H](C)C(=O)N3)nccc2cc1C(N)=O [Example 125, 1-{[(2S,4S)-4-methyl-5-oxopyrrolidin-2-yl]methoxy}-7-(propan-2-yloxy)isoquinoline-6-carboxamide] | – | – | 40 | 685 |
| COc1cc2c(OC[C@H]3NC(=O)[C@@H](F)[C@H]3C3CC3)nccc2cc1C(N)=O [Example 368, 1-{[(2S,3S,4S)-3-cyclopropyl-4-fluoro-5-oxopyrrolidin-2-yl]methoxy}-7-methoxyisoquinoline-6-carboxamide] | – | – | 0.3 | 10 |
| CC(C)Oc1cc2c(OC[C@H]3NC(=O)C(F)(F)[C@H]3C)nccc2cc1C(N)=O [Example 183, 1-{[(2S,3S)-4,4-difluoro-3-methyl-5-oxopyrrolidin-2-yl]methoxy}-7-(propan-2-yloxy)isoquinoline-6-carboxamide] | – | – | 0.2 | 10 |
| CC[C@@]1(F)C[C@@H](COc2ccnc3cc(C(N)=O)c(OC)cc23)NC1=O [Example 260, 4-{[(2S,4R)-4-ethyl-4-fluoro-5-oxopyrrolidin-2-yl]methoxy}-6-methoxyquinoline-7-carboxamide] | – | – | 202 | 6280 |
| CC(C)Oc1cc2c(OC[C@H]3NC(=O)C[C@@H]3C)nccc2cc1C(N)=O [Example 141, 1-{[(2S,3S)-3-methyl-5-oxopyrrolidin-2-yl]methoxy}-7-(propan-2-yloxy)isoquinoline-6-carboxamide] | – | – | 70 | 294 |
| COc1cc2c(OC[C@H]3CNC(=O)O3)nccc2cc1C(N)=O [Example 235, 7-methoxy-1-{[(5R)-2-oxo-1,3-oxazolidin-5-yl]methoxy}isoquinoline-6-carboxamide] | – | – | 97 | 1090 |
| CC(C)Oc1cc2c(OC[C@@H]3CCC(=O)N3)cccc2cc1C(N)=O [Example 114, 5-{[(2S)-5-oxopyrrolidin-2-yl]methoxy}-3-(propan-2-yloxy)naphthalene-2-carboxamide] | – | – | 0.7 | 33 |
| COc1cc2c(OC[C@H]3NC(=O)[C@](F)(CO)[C@H]3C)nccc2cc1C(N)=O [Example 208, 1-{[(2S,3S,4R)-4-fluoro-4-(hydroxymethyl)-3-methyl-5-oxopyrrolidin-2-yl]methoxy}-7-methoxyisoquinoline-6-carboxamide] | – | – | 1.1 | 87 |
| CC(C)Oc1cc2c(OC[C@@H]3CC(F)(F)C(=O)N3)nccc2cc1C(N)=O [Example 128, 1-{[(2S)-4,4-difluoro-5-oxopyrrolidin-2-yl]methoxy}-7-(propan-2-yloxy)isoquinoline-6-carboxamide] | – | – | 0.3 | 27 |
| CC[C@H]1[C@@H](COc2nccc3cc(C(N)=O)c(OC)cc23)NC(=O)[C@@H]1O [Example 353, 1-{[(2S,3S,4R)-3-ethyl-4-hydroxy-5-oxopyrrolidin-2-yl]methoxy}-7-methoxyisoquinoline-6-carboxamide] | – | – | 0.5 | 20 |
| COc1cc2c(OC[C@H]3NC(=O)C[C@@H]3CF)nccc2cc1C(N)=O [Example 249, 1-{[(2S,3S)-3-(fluoromethyl)-5-oxopyrrolidin-2-yl]methoxy}-7-methoxyisoquinoline-6-carboxamide] | – | – | 20 | 764 |
| COc1cc2c(OC[C@@H]3CCC(=O)N3)ncnc2cc1C(N)=O [Example 209, 6-methoxy-4-{[(2S)-5-oxopyrrolidin-2-yl]methoxy}quinazoline-7-carboxamide] | – | – | 251 | 9310 |
| CC[C@H]1C[C@@H](COc2nccc3cc(C(N)=O)c(OC(C)C)cc23)NC1=O [Example 135, 1-{[(2S,4S)-4-ethyl-5-oxopyrrolidin-2-yl]methoxy}-7-(propan-2-yloxy)isoquinoline-6-carboxamide] | – | – | 1.2 | 32 |
| C=C[C@@H]1CC(=O)N[C@@H]1COc1nccc2cc(C(N)=O)c(OC)cc12 [Example 251, 1-{[(2S,3S)-3-ethenyl-5-oxopyrrolidin-2-yl]methoxy}-7-methoxyisoquinoline-6-carboxamide] | – | – | 3.4 | 72 |
| CC[C@@H]1[C@H](N)C(=O)N[C@@H]1COc1nccc2cc(C(N)=O)c(OC)cc12 [Example 356, 1-{[(2S,3R,4S)-4-amino-3-ethyl-5-oxopyrrolidin-2-yl]methoxy}-7-methoxyisoquinoline-6-carboxamide] | – | – | 115 | 594 |
| CC(C)Oc1cc2c(OC[C@@H]3CNC(=O)N3)nccc2cc1C(N)=O [Example 202, 1-{[(4S)-2-oxoimidazolidin-4-yl]methoxy}-7-(propan-2-yloxy)isoquinoline-6-carboxamide] | – | – | 85 | 922 |
| CC[C@@H]1CC(=O)N[C@@H]1COc1ncc(F)c2cc(C(N)=O)c(OC)cc12 [Example 362, 1-{[(2S,3R)-3-ethyl-5-oxopyrrolidin-2-yl]methoxy}-4-fluoro-7-methoxyisoquinoline-6-carboxamide] | – | – | 1.1 | 28 |
